Reference: US20250154170A1, “FUSED PYRIMIDINES AS KRAS INHIBITORS” (priority 2022, published 2025)
pIC50: −log10 of the molar value.

How the values were obtained:
K-Ras G12D = K-Ras G12D (Homo sapiens, UniProt P01116, G12D); test: K-Ras G12D activation by SOS1 (KRAS G12D activation by SOS1cat assay, HTRF); format: biochemical; conditions: mean, SOS1cat mediated loading of GST-KRAS G12D-GDP with fluorescent GTP analogue, read-out: K-Ras G12D activation by SOS1 IC50 - [mol/l] (mean)
Method: (§1) Preparation of test compound dilutions. A 100-fold concentrated solution of the test compound (50 nL) in DMSO was transferred to microtiter test plates (384 or 1,536 wells, Greiner Bio-One, Germany) using either a Hummingbird liquid handler (Digilab, MA, USA) or an Echo acoustic system (Labcyte, CA, USA). Plates were sealed with adhesive foil or heat-sealed and stored at −20 C until use. Serial dilutions of test compounds were prepared in 100% DMSO using a Precision Pipetting System (BioTek, USA).
(§2) Measurement and evaluation of inhibition data, calculation of IC50 values. Homogeneous time-resolved fluorescence (HTRF) was measured with a PHERAstar reader (BMG, Germany) using the HTRF module (excitation: 337 nm; emission 1: 620 nm, emission 2: 665 nm). The ratio of the emissions at 665 and 620 nm was used as the specific signal for further evaluation. The data were normalized using the controls: DMSO=0% inhibition, inhibition control wells with inhibitor control solution=100% inhibition. Compounds were tested in duplicates at up to 11 concentrations (e.g. 20 μM, 5.7 μM, 1.6 μM, 0.47 μM, 0.13 μM, 38 nM, 11 nM, 3.1 nM, 0.89 nM, 0.25 nM and 0.073 nM). IC50 values were calculated using a four-parameter fit, with a commercial software package (Genedata Screener, Switzerland).
(§3) KRAS^G12C activation by SOS1^cat assay (“On-assay”). This assay quantifies SOS1^cat mediated loading of KRAS^G12C-GDP with a fluorescent GTP analogue. Detection of successful loading was achieved by measuring resonance energy transfer from anti-GST-terbium (FRET donor) bound to GST-KRAS^G12C to the loaded fluorescent GTP analogue (FRET acceptor). The fluorescent GTP analogue EDA-GTP-DY-647P1 [2′/3′-O-(2-aminoethyl-carbamoyl)guanosine-5′-triphosphate labelled with DY-647P1 (Dyomics GmbH, Germany)] was synthesized by Jena Bioscience (Germany) and supplied as a 1 mM aqueous solution. A KRAS^G12C working solution was prepared in assay buffer [10 mM HEPES pH 7.4 (AppliChem), 150 mM NaCl (Sigma), 5 mM MgCl2 (Sigma), 1 mM DTT (Thermo Fisher), 0.05% BSA Fraction V pH 7.0 (ICN Biomedicals), 0.0025% (v/v) Igepal (Sigma)] containing GST-KRAS^G12C (final concentration in assay 50 nM) and anti-GST-terbium (Cisbio, France) (final concentration in assay 1 nM). A SOS1^cat working solution was prepared in assay buffer containing SOS1^cat (final concentration 10 nM) and EDA-GTP-DY-647P1 (final concentration 100 nM). An inhibitor control solution was prepared in assay buffer containing EDA-GTP-DY-647P1 (final concentration 100 nM) without SOS1^cat. All steps of the assay were performed at 20° C. A volume of 3 μL of the KRAS^G12C working solution was added to all wells of the test plate using a Multidrop dispenser (Thermo LabSystems). After 15 min, 2 μL of the SOS1^ct working solution was added to all wells, except for the inhibitor control solution wells. After 30 min incubation, HTRF was measured.
(§4) G12D and Wild-type KRAS activation by SOS1cat assays. These assays quantify human SOS1^cat mediated loading of wild-type GST-KRAS^WT-GDP or GST-KRAS^G12D-GDP with a fluorescent GTP analogue. The assay was performed similarly to the KRAS^G12C activation by SOS1^cat assay with the following differences: final concentration of SOS1^cat of 60 nM and final incubation time before measurement of 10 min for KRAS^G12D assay, final concentration of SOS1^cat of 20 nM and final incubation time before measurement of 15 min for wild-type KRAS assay, respectively. GST-KRAS^G12C was replaced by GST-KRAS^WT or GST-KRAS^G12D, respectively, also at 50 nM final concentration.
KRAS^G12D activation by SOS1^cat assay (“On-assay”). This assay quantifies SOS1^cat mediated loading of KRAS^G12D-GDP with a fluorescent GTP analogue. Detection of successful loading was achieved by measuring resonance energy transfer from anti-GST-terbium (FRET donor) bound to GST-KRAS^G12D to the loaded fluorescent GTP analogue (FRET acceptor).

K-Ras-wildtype = K-Ras-wildtype (Homo sapiens, UniProt P01116); test: K-Ras-wildtype activation by SOS1 (wild-type KRAS activation by SOS1cat assay, HTRF); format: biochemical; conditions: mean, SOS1cat mediated loading of wild-type GST-KRAS-GDP with fluorescent GTP analogue, read-out: K-Ras-wildtype activation by SOS1 IC50 - [mol/l] (mean)
Method: as §1, §2, §3, §4
Wild-type KRAS activation by SOS1^cat assay. This assay quantifies human SOS1^cat mediated loading of wild-type GST-KRAS-GDP with a fluorescent GTP analogue. The assay was performed similarly to the KRAS^G12D activation by SOS1^cat assay just by replacement of GST-KRAS^G12D by wild-type GST-KRAS while concentrations of all components and incubation times were the same.

Chain of K-Ras-wildtype (P01116 1-188 isoform P01116-2): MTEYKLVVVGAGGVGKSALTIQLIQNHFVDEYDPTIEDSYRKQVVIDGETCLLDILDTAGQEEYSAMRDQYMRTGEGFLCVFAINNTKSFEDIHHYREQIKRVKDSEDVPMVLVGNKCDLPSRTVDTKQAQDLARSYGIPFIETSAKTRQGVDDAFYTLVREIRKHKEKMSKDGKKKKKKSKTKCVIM
Chain of K-Ras G12D (P01116 1-188 isoform P01116-2 G12D): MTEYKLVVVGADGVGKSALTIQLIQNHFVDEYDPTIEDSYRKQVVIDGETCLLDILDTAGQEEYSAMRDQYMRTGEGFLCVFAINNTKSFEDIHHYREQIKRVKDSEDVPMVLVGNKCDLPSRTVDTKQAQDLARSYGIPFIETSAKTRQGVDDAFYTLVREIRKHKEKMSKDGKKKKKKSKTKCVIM

Structure (SMILES)	pIC50 (K-Ras G12D)	pIC50 (K-Ras-wildtype)
C#Cc1cccc2cc(O)cc(N(C)c3nc4c(N5CC6CCC(C5)N6)nc(OC[C@@]56CCCN5C[C@H](F)C6)nc4s3)c12 [Example 31, 4-{[7-(3,8-diazabicyclo[3.2.1]octan-3-yl)-5-{[(2R,7aS)-2-fluorotetrahydro-1H-pyrrolizin-7a(5H)-yl]methoxy}[1,3]thiazolo[5,4-d]pyrimidin-2-yl](methyl)amino}-5-ethynylnaphthalen-2-ol]	8.35	7.21
C#Cc1c(F)ccc2cc(O)cc(Cc3nc4c(N5CC6CCC(C5)N6)nc(OC[C@@]56CCCN5C[C@H](F)C6)nc4s3)c12 [Example 32, 4-{[7-(3,8-diazabicyclo[3.2.1]octan-3-yl)-5-{[(2R,7aS)-2-fluorotetrahydro-1H-pyrrolizin-7a(5H)-yl]methoxy}[1,3]thiazolo[5,4-d]pyrimidin-2-yl]methyl}-5-ethynyl-6-fluoronaphthalen-2-ol]	8.40	7.00
